Literature values, collected in US9072754B2, “Process for obtaining non-allergic propolis” (MR. GIUSEPPE MARIA RICCHIUTO, priority 2010, dated 2015).

Settings: among the compounds of the LB-1 fraction of propolis; literature

allergenic effect: the most allergenic effect
SMILES: CC(C)=CCOC(=O)/C=C/c1ccc(O)c(O)c1 [3-methyl-2-butenyl-caffeate, 3-methyl-2-butenyl caffeate]
